Measured values as given in publication PMC7822874, “Chemoprotective antimalarials identified through quantitative high-throughput screening of Plasmodium blood and liver stage parasites” (Scientific Reports, 2021).

Key:
[1] = in vitro; conditions: human, n = 1
[2] = in vitro; conditions: human
[3] = tested on: Plasmodium falciparum Dd2 asexual blood stage parasites; assay: microbe, parasite or virus in culture; set-up: species or system Plasmodium falciparum Dd2 in human erythrocytes; single determination (one 11-point concentration-response curve); conditions: Plasmodium falciparum, DD2, Erythrocyte, 72 h; read-out: AC50
[4] = HepG2-A16-CD81EGFP cells, uninfected

| SMILES | CC50 at 48 h ([1]; HepG2 cells) [µM] | AC50 [3] [µM] | further results |
| --- | --- | --- | --- |
| c1ccc(-c2cccc(-c3ccccn3)n2)nc1 [MLS000048666-01] | – | – | CC50 at 48 h ([1]; hepg2): 15.3 µM; viability at 66 h [2]: 17.7% |
| COc1cnc(-c2ccccn2)nc1Sc1c(Cl)cccc1Cl [MLS000325774-01] | 24.3 | 2.99 | viability at 48 h, 1 µM [2, 4]: 106%; viability at 48 h, 3 µM [2, 4]: 99% |
| Oc1ccc(-c2nnc(S)n2-c2ccc3c(c2)OCCO3)c(O)c1 [MLS000332001-01] | 17.2 | 2.66 | viability at 48 h, 1 µM [2, 4]: 98%; viability at 48 h, 3 µM [2, 4]: 95% |
| CCNC(S)=N/N=C/c1sc(N2CCCCC2)nc1-c1cccs1 [MLS000335256-01] | 15.3 | 0.668 | viability at 66 h [2, 4]: 103% |
| O=C1C(Nc2ccccc2)=C/C(=N\S(=O)(=O)c2cccs2)c2ccccc21 [MLS000374486-01] | 12.2 | 0.335 | viability at 48 h, 1 µM [2, 4]: 101%; viability at 48 h, 3 µM [2, 4]: 76% |
| CCOC(=O)c1cnc(-n2nc(C)cc2C)nc1NNc1nc(-c2ccccc2)cc(-c2ccccc2)n1 [MLS000580862-01] | 19.3 | 2.11 | – |
| COc1ccc(/C=N/Nc2cc(C)nc(-n3nc(C)cc3C)n2)c(OC)c1 [MLS000589396-01] | 24.3 | 5.31 | – |
| Nc1nc(-c2ccccn2)nc(N)c1Cc1ccc(Cl)cc1Cl [MLS000691892-01] | 13.7 | 7.5 | – |
| Nc1nc(-c2ccccn2)nc(N)c1Cc1ccccc1F [MLS000691905-01] | 27.3 | 13.3 | – |
| COc1cnc(-c2ccccn2)nc1NC(C)C [MLS000692222-01] | 15.3 | 5.31 | – |
| N=c1ccn(CC(=O)c2ccc(-c3ccccc3)cc2)cc1 [MLS000698051-01] | 24.3 | 0.944 | – |
| CCOC(=O)c1c(C)[nH]c2c1-c1ccccc1C(=O)C2=O [MLS000701140-01] | 10.9 | 2.37 | – |
| c1ccc(CCNc2nc(-c3ccccn3)cs2)cc1 [MLS000708031-01] | 21.7 | 7.5 | – |
| CCOC(=O)C1CCN(C(=O)c2c(C)oc3c2C(=O)c2ccccc2C3=O)CC1 [MLS000724686-01] | 15.3 | 0.531 | viability at 66 h [2, 4]: 103% |
| c1ccc(Oc2nc(-c3ccccn3)nc3ccccc23)cc1 [MLS000769533-01] | 9.68 | 7.5 | – |
| O=C(NNc1ccnc2cc(Cl)ccc12)C1CCCCC1 [MLS000770801-01] | 12.2 | 7.5 | – |
| O=C(Oc1c(CN2CCOCC2)cc(Cl)c2cccnc12)c1ccccc1Br [MLS000770987-01] | 19.3 | 7.5 | – |
| O=S(=O)(c1ccc(Cl)cc1)N1CCN(Cc2ccc(O)c3ncccc23)CC1 [MLS000774708-01] | 10.9 | 13.3 | – |
| O=C1C=CC(Br)=CC1=CNNC(=O)c1ccncc1 [MLS000778139-01] | 12.2 | 9.44 | – |
| O=C(Nc1cc(C(F)(F)F)cc(C(F)(F)F)c1)Nc1cnn(-c2ccc([N+](=O)[O-])cc2)c1C(F)(F)F [MLS000851511-01] | 10.9 | 6.68 | – |
| CN(C)CC(O)COc1ccc(C(C)(C)c2ccc(OCC(O)CN(C)C)cc2)cc1 (stereo not shown) [MLS001073934-01] | 21.7 | 8.41 | – |
| Cc1ccc(NCC(=O)Nc2cccc(F)c2)cc1S(=O)(=O)N1CCCCCC1 [MLS001128515-01] | 27.3 | – | viability at 48 h, 1 µM [2, 4]: 93%; viability at 48 h, 3 µM [2, 4]: 83% |
| COc1cnc(-c2ccccn2)nc1N(C)c1ccccc1 [MLS001166302-01] | 13.7 | 5.96 | – |
| CCCC(=O)NC(c1ccccc1)c1ccc2cccnc2c1O (stereo not shown) [MLS001204078-01] | 12.2 | 6.68 | – |

| SMILES | CC50 at 48 h ([1]; HepG2 cells) [µM] | AC50 [3] [µM] | further results |
| --- | --- | --- | --- |
| COc1cccc(C(NC(C)=O)c2ccc3cccnc3c2O)c1 (stereo not shown) [MLS001204096-01] | 12.2 | 4.22 | – |
| CCCCC(=O)NC(c1ccc(C(C)C)cc1)c1ccc2cccnc2c1O (stereo not shown) [MLS001204647-01] | 15.3 | 7.5 | – |
| CCCC(=O)NC(c1ccc(C(C)C)cc1)c1ccc2cccnc2c1O (stereo not shown) [MLS001211083-01] | 12.2 | 13.3 | – |
| O=C(Nc1nc(-c2ccccn2)cs1)c1ccc(F)c(S(=O)(=O)N2CCOCC2)c1 [MLS002162137-01] | 10.9 | 2.11 | – |
| FC(F)(F)c1cccc(Nc2nc3nonc3nc2Nc2ccc(Cl)cc2)c1 [NCGC00100377-01] | 3.85 | 0.75 | – |
| COc1ccc(C2C=C(c3ccc(F)cc3)Nc3nc(-c4ccc(Cl)cc4)nn32)cc1 (stereo not shown) [NCGC00100513-01] | 27.3 | 0.75 | – |
| COc1ccccc1Nc1c2c(nc3ccc(NC(=O)/C=C/c4cccc(OC)c4OC)cc13)CCCC2 [NCGC00104013-01] | 30.6 | 5.96 | – |
| CCN(CC)[S+](=O)([O-])c1ccc(NC(=O)CCc2c(C)nc3cc(-c4ccc(Cl)cc4)nn3c2C)cc1 [NCGC00110055-01] | 27.3 | 4.73 | – |
| CCOCc1cc(CN2CCN(c3ccccc3OC)CC2)c(O)c2ncccc12 [NCGC00114940-01] | 9.68 | 5.96 | – |
| CC(C)OCc1cc(CN2CCN(c3cccc(C(F)(F)F)c3)CC2)c(O)c2ncccc12 [NCGC00114970-01] | 10.9 | 6.68 | – |
| CCCCOCc1cc(CN2CCN(c3cccc(Cl)c3)CC2)c(O)c2ncccc12 [NCGC00114972-01] | 17.2 | 6.68 | – |
| Cc1ccc(Nc2nc3nonc3nc2Nc2cccc(C(F)(F)F)c2)cc1Cl [NCGC00117632-01] | 4.32 | 2.11 | – |
| CCOC(=O)c1ccc(Nc2nc3nonc3nc2Nc2cccc(C)c2C)cc1 [NCGC00117662-01] | 10.9 | 8.41 | – |
| Fc1ccc(Nc2nc3nonc3nc2Nc2cccc(C(F)(F)F)c2)cc1 [NCGC00117664-01] | 4.32 | 1.68 | – |
| Oc1c(C(Nc2ccccn2)c2ccccc2F)ccc2cccnc12 (stereo not shown) [NCGC00135751-01] | 27.3 | 9.44 | – |
| Cc1cc(Nc2sc(C(=O)c3ccc(F)cc3)c(N)c2C(=O)Nc2ccc(F)cc2)ccc1Cl [NCGC00138324-01] | 2.73 | 0.75 | – |
| COc1ccc2[nH]c(C[C@@H]3C[C@@H](C(C)C)[C@H](CNCc4ccccn4)C=C3C)nc2c1 [NCGC00391900-01] | 7.03 | 0.769 | – |
| COc1ccccc1CNC[C@@H]1C=C(C)[C@H](Cc2nc3cccc(C)c3[nH]2)C[C@H]1C(C)C [NCGC00392078-01] | 44.4 | 9.68 | – |
| COc1ccccc1N1CCN(C[C@@H]2C=C(C)[C@H](Cc3nnc(-c4cncn4C)o3)C[C@H]2C(C)C)CC1 [NCGC00392622-01] | 24.3 | 10.6 | – |
| Cc1nn(-c2ccc(C(C)C)cc2)c(C)c1[C@@H]1C=C[C@@H](NCc2ccccc2)C1 [NCGC00392636-01] | 44.4 | 21.7 | – |
| c1csc(-c2ccnc(N[C@H]3CO[C@H]4[C@@H]3OC[C@@H]4NCC3CCCCC3)n2)c1 [NCGC00395181-01] | 49.8 | 12.2 | – |
| CN(C)CCNC(=O)c1nc2nc(-c3ccccc3)c(-c3cccc(F)c3)cc2n1C [NCGC00417874-01] | 31.4 | 19.3 | – |
| O=C1NC2(CCCN(Cc3ccccn3)C2)COc2ccccc21 (stereo not shown) [NCGC00477540-01] | – | 4.85 | CC50 at 48 h ([1]; hepg2): 3.14 µM |
